Literature values in patent US20230023289A1, “ANTHRANILAMIDE COMPOSITION” (priority 2019, published 2023).

Target: insect ryanodine receptors (Drosophila melanogaster, UniProt Q24498)
Conditions: in words

Chain of insect ryanodine receptors (Q24498 whole entry): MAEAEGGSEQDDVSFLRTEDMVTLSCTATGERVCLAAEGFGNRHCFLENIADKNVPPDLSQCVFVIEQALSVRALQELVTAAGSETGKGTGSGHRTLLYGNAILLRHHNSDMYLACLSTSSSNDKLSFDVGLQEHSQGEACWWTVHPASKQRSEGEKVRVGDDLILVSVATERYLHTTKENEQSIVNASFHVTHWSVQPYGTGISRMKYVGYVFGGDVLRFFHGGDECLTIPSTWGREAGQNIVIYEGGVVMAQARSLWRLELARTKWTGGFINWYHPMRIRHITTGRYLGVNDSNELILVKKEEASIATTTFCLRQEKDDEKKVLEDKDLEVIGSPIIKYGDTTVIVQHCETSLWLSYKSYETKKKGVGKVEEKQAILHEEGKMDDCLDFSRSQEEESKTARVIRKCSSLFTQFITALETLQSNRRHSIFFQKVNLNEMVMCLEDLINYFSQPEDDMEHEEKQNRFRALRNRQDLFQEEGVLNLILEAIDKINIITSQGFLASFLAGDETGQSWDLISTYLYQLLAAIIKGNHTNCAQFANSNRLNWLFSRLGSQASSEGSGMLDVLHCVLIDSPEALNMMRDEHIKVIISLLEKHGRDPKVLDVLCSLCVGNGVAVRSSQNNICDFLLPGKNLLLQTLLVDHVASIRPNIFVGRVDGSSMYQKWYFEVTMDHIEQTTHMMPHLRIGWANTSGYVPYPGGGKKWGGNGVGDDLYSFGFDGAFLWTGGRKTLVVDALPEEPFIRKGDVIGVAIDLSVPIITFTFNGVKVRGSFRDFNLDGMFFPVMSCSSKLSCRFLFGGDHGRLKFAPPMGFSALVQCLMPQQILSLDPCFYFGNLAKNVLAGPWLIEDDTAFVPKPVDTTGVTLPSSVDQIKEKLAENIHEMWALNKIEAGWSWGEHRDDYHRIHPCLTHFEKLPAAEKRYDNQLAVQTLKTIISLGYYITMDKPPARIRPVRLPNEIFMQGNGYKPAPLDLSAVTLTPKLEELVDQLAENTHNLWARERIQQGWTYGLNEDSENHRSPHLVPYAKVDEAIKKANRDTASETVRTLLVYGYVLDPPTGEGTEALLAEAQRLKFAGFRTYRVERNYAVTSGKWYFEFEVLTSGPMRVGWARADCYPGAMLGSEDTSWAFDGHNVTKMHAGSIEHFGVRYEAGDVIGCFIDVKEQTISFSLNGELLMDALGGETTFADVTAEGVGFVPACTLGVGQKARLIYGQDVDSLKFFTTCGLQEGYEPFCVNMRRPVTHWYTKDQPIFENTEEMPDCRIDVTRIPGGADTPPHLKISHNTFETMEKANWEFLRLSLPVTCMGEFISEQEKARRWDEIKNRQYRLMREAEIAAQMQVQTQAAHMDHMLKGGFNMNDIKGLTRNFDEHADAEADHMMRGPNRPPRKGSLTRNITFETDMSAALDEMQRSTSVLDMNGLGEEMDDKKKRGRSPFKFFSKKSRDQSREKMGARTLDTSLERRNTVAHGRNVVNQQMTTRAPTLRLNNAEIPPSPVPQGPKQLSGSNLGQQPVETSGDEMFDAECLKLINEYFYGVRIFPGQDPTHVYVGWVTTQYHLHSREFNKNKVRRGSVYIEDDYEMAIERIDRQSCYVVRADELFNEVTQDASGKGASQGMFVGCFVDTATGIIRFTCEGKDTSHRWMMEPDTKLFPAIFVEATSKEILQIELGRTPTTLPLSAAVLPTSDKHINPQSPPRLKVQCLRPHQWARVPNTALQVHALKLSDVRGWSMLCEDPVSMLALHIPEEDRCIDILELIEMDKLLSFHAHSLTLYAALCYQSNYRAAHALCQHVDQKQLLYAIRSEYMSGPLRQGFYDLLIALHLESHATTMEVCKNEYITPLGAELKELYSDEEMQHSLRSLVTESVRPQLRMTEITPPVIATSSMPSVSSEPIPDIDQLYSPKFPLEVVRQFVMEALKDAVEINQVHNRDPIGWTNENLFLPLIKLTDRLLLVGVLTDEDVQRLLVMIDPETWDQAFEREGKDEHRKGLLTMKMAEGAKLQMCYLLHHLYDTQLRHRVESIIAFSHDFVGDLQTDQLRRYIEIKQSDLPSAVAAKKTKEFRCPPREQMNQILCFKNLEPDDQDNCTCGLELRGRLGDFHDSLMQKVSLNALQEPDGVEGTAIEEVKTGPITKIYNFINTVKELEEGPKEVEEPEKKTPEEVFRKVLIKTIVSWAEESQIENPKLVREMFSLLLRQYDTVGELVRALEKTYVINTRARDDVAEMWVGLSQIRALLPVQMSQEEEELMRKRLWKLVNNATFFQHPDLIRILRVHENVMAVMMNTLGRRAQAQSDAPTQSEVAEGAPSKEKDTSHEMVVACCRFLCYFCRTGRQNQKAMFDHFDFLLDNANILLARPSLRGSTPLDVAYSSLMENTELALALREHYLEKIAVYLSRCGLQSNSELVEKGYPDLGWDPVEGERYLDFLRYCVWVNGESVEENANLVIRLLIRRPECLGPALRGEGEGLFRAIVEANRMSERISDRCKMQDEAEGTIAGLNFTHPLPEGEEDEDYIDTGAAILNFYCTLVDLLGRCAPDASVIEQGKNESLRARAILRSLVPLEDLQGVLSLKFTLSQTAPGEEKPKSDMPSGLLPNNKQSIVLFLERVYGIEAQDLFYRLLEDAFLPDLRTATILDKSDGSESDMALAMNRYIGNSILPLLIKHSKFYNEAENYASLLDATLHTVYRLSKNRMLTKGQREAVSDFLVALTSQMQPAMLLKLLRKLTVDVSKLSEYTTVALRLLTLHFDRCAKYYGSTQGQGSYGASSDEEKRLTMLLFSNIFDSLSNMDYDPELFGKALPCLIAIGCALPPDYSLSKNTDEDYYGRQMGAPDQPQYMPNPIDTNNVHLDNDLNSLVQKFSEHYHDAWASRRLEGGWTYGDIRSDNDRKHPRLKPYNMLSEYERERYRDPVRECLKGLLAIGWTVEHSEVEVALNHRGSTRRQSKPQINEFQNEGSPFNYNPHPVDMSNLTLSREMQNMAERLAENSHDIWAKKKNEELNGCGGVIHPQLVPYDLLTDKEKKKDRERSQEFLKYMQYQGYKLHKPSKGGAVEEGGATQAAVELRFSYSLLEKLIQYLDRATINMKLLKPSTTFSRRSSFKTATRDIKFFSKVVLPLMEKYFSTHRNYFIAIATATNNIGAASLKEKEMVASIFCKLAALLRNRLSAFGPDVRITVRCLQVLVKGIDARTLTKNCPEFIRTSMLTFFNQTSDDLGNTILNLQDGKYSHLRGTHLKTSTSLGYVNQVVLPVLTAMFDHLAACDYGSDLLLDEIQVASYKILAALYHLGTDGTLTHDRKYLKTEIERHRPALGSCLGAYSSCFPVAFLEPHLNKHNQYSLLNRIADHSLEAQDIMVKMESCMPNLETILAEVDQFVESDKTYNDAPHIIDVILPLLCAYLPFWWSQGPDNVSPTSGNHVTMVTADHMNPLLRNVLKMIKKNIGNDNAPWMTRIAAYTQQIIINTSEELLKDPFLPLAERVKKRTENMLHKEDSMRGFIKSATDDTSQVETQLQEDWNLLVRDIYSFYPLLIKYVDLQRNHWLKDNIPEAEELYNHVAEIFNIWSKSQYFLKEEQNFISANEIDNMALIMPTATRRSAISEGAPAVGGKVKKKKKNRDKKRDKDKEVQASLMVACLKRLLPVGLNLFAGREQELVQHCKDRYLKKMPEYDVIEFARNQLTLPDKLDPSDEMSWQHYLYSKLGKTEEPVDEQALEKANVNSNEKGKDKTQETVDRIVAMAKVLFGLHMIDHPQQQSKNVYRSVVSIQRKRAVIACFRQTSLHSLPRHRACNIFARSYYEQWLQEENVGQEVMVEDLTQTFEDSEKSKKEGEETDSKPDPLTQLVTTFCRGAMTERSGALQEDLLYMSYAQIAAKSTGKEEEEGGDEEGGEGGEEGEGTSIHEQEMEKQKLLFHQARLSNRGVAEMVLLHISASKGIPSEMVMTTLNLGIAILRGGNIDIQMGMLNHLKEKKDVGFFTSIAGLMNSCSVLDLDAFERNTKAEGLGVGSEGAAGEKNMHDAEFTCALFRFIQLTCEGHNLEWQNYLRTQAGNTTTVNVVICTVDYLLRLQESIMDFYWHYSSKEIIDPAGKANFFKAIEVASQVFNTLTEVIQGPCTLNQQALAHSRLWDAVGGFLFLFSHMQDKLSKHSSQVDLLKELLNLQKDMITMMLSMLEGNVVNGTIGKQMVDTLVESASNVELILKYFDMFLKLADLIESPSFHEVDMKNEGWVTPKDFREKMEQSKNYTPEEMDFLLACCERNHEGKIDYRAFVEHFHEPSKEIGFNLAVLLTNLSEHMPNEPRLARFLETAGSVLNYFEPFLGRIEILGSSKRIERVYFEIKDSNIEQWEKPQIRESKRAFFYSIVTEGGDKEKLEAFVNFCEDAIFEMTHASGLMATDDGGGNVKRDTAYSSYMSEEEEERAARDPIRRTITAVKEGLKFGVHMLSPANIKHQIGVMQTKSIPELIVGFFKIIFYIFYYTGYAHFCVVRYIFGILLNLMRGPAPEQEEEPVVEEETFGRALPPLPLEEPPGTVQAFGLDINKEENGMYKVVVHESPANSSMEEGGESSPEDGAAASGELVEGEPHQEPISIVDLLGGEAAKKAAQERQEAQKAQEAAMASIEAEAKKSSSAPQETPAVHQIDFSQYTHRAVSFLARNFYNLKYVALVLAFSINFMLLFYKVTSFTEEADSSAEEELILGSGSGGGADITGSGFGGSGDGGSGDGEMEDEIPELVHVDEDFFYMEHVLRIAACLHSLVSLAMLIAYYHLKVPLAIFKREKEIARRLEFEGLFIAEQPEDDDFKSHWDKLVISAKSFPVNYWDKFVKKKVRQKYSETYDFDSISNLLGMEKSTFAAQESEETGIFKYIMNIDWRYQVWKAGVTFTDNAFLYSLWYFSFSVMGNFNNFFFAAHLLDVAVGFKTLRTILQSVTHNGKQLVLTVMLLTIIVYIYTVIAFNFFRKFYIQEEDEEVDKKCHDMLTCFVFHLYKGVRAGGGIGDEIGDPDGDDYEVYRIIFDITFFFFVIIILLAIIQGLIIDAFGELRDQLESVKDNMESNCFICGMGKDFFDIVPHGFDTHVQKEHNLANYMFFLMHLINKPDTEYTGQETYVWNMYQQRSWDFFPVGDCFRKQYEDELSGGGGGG

CNC(=O)c1cc(Cl)cc(C)c1NC(=O)c1cc(Br)nn1-c1ncccc1Cl [chlorantraniliprole, 5-bromo-N-[4-chloro-2-methyl-6-(methylcarbamoyl)phenyl]-2-(3-chloropyridin-2-yl)pyrazole-3-carboxamide]
Selectivity for insect ryanodine receptors over mammalian ryanodine receptors: excellent differential selectivity
